# From patent US10857105B2, “Compounds and compositions for intracellular delivery of therapeutic agents” (ModernaTX, Inc., priority 2017, dated 2020)
# Columns and labels:
# [1] = Particle size and polydispersity index of nanoparticle compositions (Zetasizer Nano ZS); type: physicochemical
# In short: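 Size and PDI measured by Zetasizer Nano ZS in 1×PBS (zeta potential in 15 mM PBS). Lipid nanoparticles contained test ionizable lipid:DSPC:cholesterol:PEG-DMG at 50:10:38.5:1.5 mol % with N1-methyl-pseudouridine mRNA encoding luciferase or hEPO.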
# [2] = Encapsulation efficiency of RNA in nanoparticle compositions (RIBOGREEN assay); type: physicochemical
# In short: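 Lipid nanoparticles (ionisable lipid:DSPC:cholesterol:PEG-DMG 50:10:38.5:1.5 mol %) carrying N1-methylpseudouridine luciferase or hEPO mRNA diluted to about 5 μg/mL in TE, pH 7.5, with or without 2% Triton X-100, 15 min at 37° C. RiboGreen fluorescence (ex ~480, em ~520 nm) blank-subtracted; free RNA = intact/disrupted signal.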
# luciferase (Luc) mRNA = assay: Luciferase expression (whole body bioluminescence) after intravenous administration to mice; type: in vivo; conditions: for Novel lipid/MC3 expression ratio, i.v.: intravenous, luciferase, 6 hr. time point, relative to MC3 formulation
# Protocol: In order to monitor how effectively various nanoparticle compositions deliver therapeutic and/or prophylactics to targeted cells, different nanparticle compositions including a particular therapeutic and/or prophylactic (for example, a modified or naturally occurring RNA such as an mRNA) are prepared and administered to rodent populations. Mice are intravenously, intramuscularly, intraarterially, or intratumorally administered a single dose including a nanoparticle composition with a formulation such as those provided in Example 3. In some instances, mice may be made to inhale doses. Dose sizes may range from 0.001 mg/kg to 10 mg/kg, where 10 mg/kg describes a dose including 10 mg of a therapeutic and/or, prophylactic in a nanoparticle composition for each 1 kg of body mass of the mouse. A control composition including PBS may also be employed.
# Upon administration of nanoparticle compositions to mice, dose delivery profiles, dose responses, and toxicity of particular formulations and doses thereof can be measured by enzyme-linked immunosorbent assays (ELISA), bioluminescent imaging, or other methods. For nanoparticle compositions including mRNA, time courses of protein expression can also be evaluated. Samples collected from the rodents for evaluation may include blood, sera, and tissue (for example, muscle tissue from the site of an intramuscular injection and internal tissue); sample collection may involve sacrifice of the animals.
# The efficacy of the nanoparticle compositions presented in Table 1A was evaluated with a bioluminescence study. Formulations were administered intravenously to mice (n=6) at a dosage of 0.5 mg/kg (mpk) and bioluminescence measured at 3, 6, and 24 hour time points. The standard MC3 formulation and, in some instances, a control (e.g., a PBS control) were evaluated for comparison. […] In general, flux decreased as time progressed to less than 10% of the initial flux.
# The total flux (measured by area under the curve, AUC) induced by administration of a formulation including a given lipid relative to that induced by administration of a formulation including MC3 was also measured for several lipids.
# modified luciferase = assay: Luciferase expression in liver, lung, spleen and femur 6 hours after intravenous administration to mice; type: in vivo; conditions: 6 hours after intravenous 0.5 mpk, mice
# In short: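 Nanoparticle formulations of the modified luciferase were given intravenously to mice (n=3) at 0.5 mpk. Bioluminescence was measured after 6 hours as total light flux. Standard MC3 formulation and PBS run as controls.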
# [3] = Table 1A, lipid:DSPC:cholesterol:PEG-DMG 50:10:38.5:1.5 mol %
# [4] = Table 1D, compositions for subcutaneous administration, # formulated with hEPO mRNA
# [5] = intravenous administration (Table 3D)
# [6] = Table 1B, formulated with hEPO mRNA
structure (smiles),measurement,setting,value
"CCCCCCCCCC(=O)OCCCCCCCN(CCO)CCCCCCCC(=O)OC(CCCCCCCC)CCCCCCCC [Compound 96, 7-((8-(Heptadecan-9-yloxy)-8-oxooctyl)(2-hydroxyethyl)amino)heptyl decanoate]",Size,[1]; [3],120.5 nm
same,Size,[1]; [4],82.6 nm
same,EE,[2]; [3],79.04%
same,AUC,luciferase (Luc) mRNA; [5],1.209E+012 p/s*h
same,"Total Flux, Liver",modified luciferase,1.56E+10
same,"Total Flux, Lung",modified luciferase,3.43E+07
same,"Total Flux, Spleen",modified luciferase,3.39E+08
"CCCCCCCCCOC(=O)CCCCCCCN(CCCCCCCC(=O)OC(CCCCCCCC)CCCCCCCC)CCN1CCOCC1 [Compound 103, Heptadecan-9-yl 8-((2-morpholinoethyl)(8-(nonyloxy)-8-oxooctyl)amino)octanoate]",Size,[1]; [3],78.8 nm
same,EE,[2]; [3],90.77%
same,AUC,luciferase (Luc) mRNA; i.v. administration (Table 3C),2.4E+10 h*p/s
same,"Total Flux, Liver",modified luciferase,8.48E+07
same,"Total Flux, Lung",modified luciferase,2.06E+05
same,"Total Flux, Spleen",modified luciferase,2.65E+06
"CCCCCCCCCOC(=O)CCCCCCCN(CCCCCCCC(=O)OC(CCCCCCCC)CCCCCCCC)CCCNC(C)=O [Compound 108, Heptadecan-9-yl 8-((3-acetamidopropyl)(8-(nonyloxy)-8-oxooctyl)amino)octanoate]",Size,[1]; [3],119 nm
same,Size,[1]; [6],89.6 nm
same,Size,"[1]; Table 1E, compositions for subcutaneous administration",96.1 nm
same,EE,[2]; [3],96%
same,EE,[2]; [6],95.38%
same,"Novel lipid/MC3 expression ratio, i.v.",luciferase (Luc) mRNA,0.40
same,"Total Flux, Liver",modified luciferase,4.63E+08
same,"Total Flux, Lung",modified luciferase,9.81E+06
same,"Total Flux, Spleen",modified luciferase,7.82E+08
"CCCCCCCCOP(=O)(OCCCCCCCC)OCCCCCCCN(CCO)CCCCCCCC(=O)OC(C)CCCCCCCC (centres unmarked) [Compound 132, Decan-2-yl 8-((7-((bis(octyloxy)phosphoryl)oxy)heptyl)(2-hydroxyethyl)amino)octanoate]",EE,[2]; [3],30.77%
same,AUC,luciferase (Luc) mRNA; i.v. administration (Table 3C),1.75E+10 h*p/s
same,"Total Flux, Liver",modified luciferase,1.49E+08
same,"Total Flux, Lung",modified luciferase,1.39E+07
same,"Total Flux, Spleen",modified luciferase,3.37E+08
"CCCCCCCCC(CCCCCC)C(=O)OCCCCCCCCCN(CCO)CCCCCCCCCOC(=O)C(CCCCCC)CCCCCCCC (centres unmarked) [Compound 133, ((2-Hydroxyethyl)azanediyl)bis(nonane-9,1-diyl) bis(2-hexyldecanoate)]",Size,[1]; [3],66.0 nm
same,EE,[2]; [3],91.48%
same,AUC,luciferase (Luc) mRNA; i.v. administration (Table 3C),3.62E+11 h*p/s
same,"Total Flux, Liver",modified luciferase,2.94E+09
same,"Total Flux, Lung",modified luciferase,3.18E+06
same,"Total Flux, Spleen",modified luciferase,1.77E+07
"CCCCCCCCCOC(=O)CCCCCCCN(CCO)CCCCCCCCCOC(=O)C(CCCCCC)CCCCCCCC (centres unmarked) [Compound 134, 9-((2-Hydroxyethyl)(8-(nonyloxy)-8-oxooctyl)amino)nonyl 2-hexyldecanoate]",Size,[1]; [3],85.6 nm
same,EE,[2]; [3],94.62%
same,AUC,luciferase (Luc) mRNA; i.v. administration (Table 3C),3.43E+11 h*p/s
same,"Total Flux, Liver",modified luciferase,1.73E+09
same,"Total Flux, Lung",modified luciferase,2.82E+06
same,"Total Flux, Spleen",modified luciferase,1.85E+07
"CCCCCCCCC(C)OC(=O)CCCCCCCN(CCO)CCCCCCCOC(=O)C(CCCCCCCC)CCCCCCCC (centres unmarked) [Compound 135, 7-((8-(Decan-2-yloxy)-8-oxooctyl)(2-hydroxyethyl)amino)heptyl 2-octyldecanoate]",Size,[1]; [3],89.5 nm
same,EE,[2]; [3],90.20%
same,AUC,luciferase (Luc) mRNA; i.v. administration (Table 3C),1.25E+12 h*p/s
same,"Total Flux, Liver",modified luciferase,1.65E+10
same,"Total Flux, Lung",modified luciferase,2.71E+07
same,"Total Flux, Spleen",modified luciferase,1.39E+08
"CCCCCCCCC(CCCCCCCC)OC(=O)CCCCCCCN(CCO)CCCCCCCC(=O)N(C)CCCCCCCC [Compound 145, Heptadecan-9-yl 8-((2-hydroxyethyl)(8-(methyl(octyl)amino)-8-oxooctyl)amino)octanoate]",EE,[2]; [3],89.15%
same,AUC,luciferase (Luc) mRNA; i.v. administration (Table 3C),8.1E+10 h*p/s
same,"Total Flux, Liver",modified luciferase,5.01E+08
same,"Total Flux, Lung",modified luciferase,1.36E+07
same,"Total Flux, Spleen",modified luciferase,4.25E+08
"CCCCCCCCC(CCCCCCCC)OC(=O)CCCCCCCN(CCO)CCCCCC(=O)N(C)CCCCCCCC [Compound 146, Heptadecan-9-yl 8-((2-hydroxyethyl)(6-(methyl(octyl)amino)-6-oxohexyl)amino)octanoate]",Size,[1]; [3],97.0 nm
same,EE,[2]; [3],91.94%
same,AUC,luciferase (Luc) mRNA; i.v. administration (Table 3C),1.04E+09 h*p/s
same,"Total Flux, Liver",modified luciferase,7.24E+06
same,"Total Flux, Lung",modified luciferase,3.88E+06
same,"Total Flux, Spleen",modified luciferase,5.11E+07
"CCCCCCCCCOC(=O)CCCCCCCN(CCO)CCCCCCCCCC(=O)OC(CCCCCC)CCCCCC [Compound 147, Tridecan-7-yl 10-((2-hydroxyethyl)(8-(nonyloxy)-8-oxooctyl)amino)decanoate]",Size,[1]; [3],99.5 nm
same,Size,[1]; [6],111.9 nm
same,EE,[2]; [3],88.31%
same,EE,[2]; [6],91.0%
same,AUC,luciferase (Luc) mRNA; i.v. administration (Table 3C),5.63E+11 h*p/s
same,"Total Flux, Liver",modified luciferase,5.24E+09
same,"Total Flux, Lung",modified luciferase,6.73E+06
same,"Total Flux, Spleen",modified luciferase,8.57E+07
"CCCCCCCCC(CCCCCCCC)OC(=O)CCCCCCCN(CCO)CCCCCCCC(=O)OCC(CCCCCCC)OC (centres unmarked) [Compound 148, Heptadecan-9-yl 8-((2-hydroxyethyl)(8-((2-methoxynonyl)oxy)-8-oxooctyl)amino)octanoate]",EE,[2]; [3],25.49%
same,AUC,luciferase (Luc) mRNA; [5],4.965E+011 p/s*h
same,"Total Flux, Liver",modified luciferase,4.39E+09
same,"Total Flux, Lung",modified luciferase,3.27E+07
same,"Total Flux, Spleen",modified luciferase,2.71E+09
"CCCCCCCCC(CCCCCCCC)OC(=O)CCCCCCCN(C)CCCCCCCCCCCC(=O)OCCCCC [Compound 150, Pentyl 12-((8-(heptadecan-9-yloxy)-8-oxooctyl)(methyl)amino)dodecanoate]",Size,[1]; [3],63.1 nm
same,EE,[2]; [3],96.72%
same,AUC,luciferase (Luc) mRNA; [5],2.704E+011 p/s*h
same,"Total Flux, Liver",modified luciferase,1.54E+09
same,"Total Flux, Lung",modified luciferase,2.20E+06
same,"Total Flux, Spleen",modified luciferase,3.43E+07
"CCCCCCCCCC(=O)OCCCCCCCN(CCO)CCCCCCCOC(=O)C(CCCCCCCC)CCCCCCCC [Compound 151, 7-((7-(Decanoyloxy)heptyl)(2-hydroxyethyl)amino)heptyl 2-octyldecanoate]",Size,[1]; [3],105.7 nm
same,Size,[1]; [4],77.6 nm
same,EE,[2]; [3],87.86%
same,AUC,luciferase (Luc) mRNA; [5],7.010E+011 p/s*h
same,"Total Flux, Liver",modified luciferase,4.72E+09
same,"Total Flux, Lung",modified luciferase,9.20E+06
same,"Total Flux, Spleen",modified luciferase,9.27E+07
"CCCCCCCCC(CCCCCCCC)OC(=O)CCCCCCCN(CCO)CCCCCCCC(=O)OC(C)(C)C [Compound 155, tert-Butyl 8-((8-(heptadecan-9-yloxy)-8-oxooctyl)(2-hydroxyethyl)amino)octanoate]",EE,[2]; [3],37.36%
same,AUC,luciferase (Luc) mRNA; [5],1.266E+011 p/s*h
same,"Total Flux, Liver",modified luciferase,8.58E+08
same,"Total Flux, Lung",modified luciferase,1.00E+07
same,"Total Flux, Spleen",modified luciferase,2.77E+08
"CCCCCCCCCOC(=O)CCCCCCCN(CCO)CCCCCCCC(=O)OC(C)(C)C [Compound 158, tert-Butyl 8-((2-hydroxyethyl)(8-(nonyloxy)-8-oxooctyl)amino)octanoate]",EE,[2]; [3],35.70%
same,AUC,luciferase (Luc) mRNA; [5],1.211E+007 p/s*h
same,"Total Flux, Liver",modified luciferase,1.99E+05
same,"Total Flux, Lung",modified luciferase,1.71E+04
same,"Total Flux, Spleen",modified luciferase,1.17E+05
"CCCCCCCCCOC(=O)CCCCCCCN(CCCCCCCC(=O)OC(CCCCCCCC)CCCCCCCC)CCCNC(=O)COC [Compound 178, Heptadecan-9-yl 8-((3-(2-methoxyacetamido)propyl)(8-(nonyloxy)-8-oxooctyl)amino)octanoate]",Size,[1]; [3],104.2 nm
same,EE,[2]; [3],94.7%
same,"Novel lipid/MC3 expression ratio, i.v.",luciferase (Luc) mRNA,0.03
"CCCCCCCCCOC(=O)CCCCCCCN(CCCCCCCC(=O)OC(CCCCCCCC)CCCCCCCC)CCCn1cc(CO)nn1 [Compound 218, Heptadecan-9-yl 8-((3-(4-(hydroxymethyl)-1H-1,2,3-triazol-1-yl)propyl)(8-(nonyloxy)-8-oxooctyl)amino)octanoate]",Size,[1]; [3],81.4 nm
same,EE,[2]; [3],98.8%
same,"Novel lipid/MC3 expression ratio, i.v.",luciferase (Luc) mRNA,>0.01
